According to ChEMBL document CHEMBL1201862, “PubChem BioAssay data set” (2004):
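Following 48 hours of exposure in 96-well plates, responses at five concentrations were used to interpolate endpoints linearly. The concentration for 50% growth inhibition is given as GI50.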 Calls of active or inactive are those of the source. No stated cut-off is given here; in the data, active = GI50 up to about 1.1 µM and inactive = higher. *1 amine or outer side, *2 acyl side, *3 side chain or, on linkers, in order; H or OH if unused. Where a SMILES comes first, the peptide text is derived from it. Bridges are numbered along the chain shown (N, C = ends). [ ]: non-standard residue; d: D form. X36 = CC[C@H](C)[C@@H](N[*:1])[C@@H](O)CC(=O)O[C@H](C(=O)[C@H](C)C(=O)[*:2])C(C)C; NMeY = CN[C@@H](Cc1ccc(O)cc1)C(=O)O

Key:
Test in all cases: DTP human tumour cell line panel, 48 h
RPMI-8226 = system: RPMI-8226
HOP-92 = system: HOP-92
UO-31 = system: UO-31
786-0 = system: 786-0
NCI-H226 = system: NCI-H226
OVCAR-5 = system: OVCAR-5
NCI-H522 = system: NCI-H522
SF-268 = system: SF-268
HOP-62 = system: HOP-62
IGROV-1 = system: IGROV-1
SN12C = system: SN12C
T47D = system: T47D
TK-10 = system: TK-10
LOX IMVI = system: LOX IMVI
SK-MEL-2 = system: SK-MEL-2
BT-549 = system: BT-549
NCI-H460 = system: NCI-H460
MDA-MB-231 = system: MDA-MB-231
MDA-MB-435 = system: MDA-MB-435
DU-145 = system: DU-145
K562 = system: K562
HCT-15 = system: HCT-15
HCC 2998 = system: HCC 2998
UACC-62 = system: UACC-62
SF-295 = system: SF-295
SK-OV-3 = system: SK-OV-3
SF-539 = system: SF-539
SR = system: SR
EKVX = system: EKVX
CAKI-1 = system: CAKI-1
HCT-116 = system: HCT-116
SK-MEL-5 = system: SK-MEL-5
M14 = system: M14
OVCAR-3 = system: OVCAR-3
UACC-257 = system: UACC-257
HT-29 = system: HT-29
Hs-578T = system: Hs-578T
OVCAR-8 = system: OVCAR-8
A498 = system: A498
A549 = system: A549
Malme-3M = system: Malme-3M
SNB-19 = system: SNB-19
SK-MEL-28 = system: SK-MEL-28
RXF 393 = system: RXF 393
MCF7 = system: MCF7
ACHN = system: ACHN
PC-3 = system: PC-3
COLO 205 = system: COLO 205
U-251 = system: U-251
NCI/ADR-RES = system: NCI/ADR-RES
NCI-H23 = system: NCI-H23
MDA-N = system: MDA-N
HL-60 = system: HL-60
OVCAR-4 = system: OVCAR-4
SW-620 = system: SW-620
MOLT-4 = system: MOLT-4
CCRF-CEM = system: CCRF-CEM
KM12 = system: KM12
SNB-75 = system: SNB-75

Measured: GI50

C=C(c1ccc2[nH]c(NC(=O)OC)nc2c1)c1cccs1
inactive: OVCAR-5 2.1 µM | SF-268 2.02 µM | SK-MEL-2 2.26 µM | EKVX 9.46 µM | SK-MEL-28 3.47 µM | RXF 393 > 100 µM
active: RPMI-8226 0.316 µM | HOP-92 0.975 µM | UO-31 0.916 µM | 786-0 0.155 µM | NCI-H226 0.22 µM | NCI-H522 0.0813 µM | HOP-62 0.206 µM | IGROV-1 0.371 µM | SN12C 0.839 µM | T47D 0.354 µM | TK-10 0.22 µM | LOX IMVI 0.0986 µM | BT-549 0.679 µM | NCI-H460 0.118 µM | MDA-MB-231 0.365 µM | MDA-MB-435 0.0259 µM | DU-145 0.309 µM | K562 < 0.0456 µM | HCC 2998 0.217 µM | UACC-62 0.121 µM | SF-295 0.051 µM | SK-OV-3 0.135 µM | SF-539 0.0693 µM | SR < 0.01 µM | CAKI-1 < 0.046 µM | HCT-116 0.0675 µM | SK-MEL-5 0.0703 µM | M14 0.247 µM | OVCAR-3 0.0379 µM | UACC-257 0.556 µM | HT-29 0.0568 µM | Hs-578T 0.417 µM | OVCAR-8 0.299 µM | A498 0.425 µM | A549 0.16 µM | Malme-3M 0.0855 µM | SNB-19 0.198 µM | MCF7 0.0925 µM | ACHN 0.06 µM | PC-3 0.0914 µM | COLO 205 0.129 µM | U-251 0.0791 µM | NCI/ADR-RES 0.0488 µM | NCI-H23 0.129 µM
< 0.0349 µM: HCT-15

CO/C(=N\N=C\c1ccc(Cl)cc1Cl)c1ccncc1
> 10 µM: HCT-15
inactive: RPMI-8226 6.24 µM | HOP-92 > 10 µM | UO-31 > 10 µM | 786-0 > 10 µM | NCI-H226 > 10 µM | MDA-N 4.51 µM | OVCAR-5 > 10 µM | NCI-H522 > 10 µM | SF-268 > 10 µM | HOP-62 > 10 µM | SN12C > 10 µM | T47D 7.69 µM | TK-10 > 10 µM | LOX IMVI > 10 µM | SK-MEL-2 > 10 µM | HL-60 > 10 µM | BT-549 > 10 µM | OVCAR-4 > 10 µM | NCI-H460 > 10 µM | MDA-MB-231 > 10 µM | MDA-MB-435 3.66 µM | DU-145 > 10 µM | K562 > 10 µM | SW-620 > 10 µM | MOLT-4 > 10 µM | SF-295 > 10 µM | SR > 10 µM | EKVX > 10 µM | CAKI-1 > 10 µM | CCRF-CEM > 10 µM | HCT-116 > 10 µM | M14 > 10 µM | OVCAR-3 > 10 µM | UACC-257 > 10 µM | HT-29 > 10 µM | OVCAR-8 > 10 µM | A549 > 10 µM | Malme-3M > 10 µM | SNB-19 > 10 µM | RXF 393 > 10 µM | MCF7 > 10 µM | KM12 > 10 µM | ACHN > 10 µM | PC-3 > 10 µM | COLO 205 > 10 µM | U-251 > 10 µM | NCI/ADR-RES > 10 µM | NCI-H23 > 10 µM

CC[C@H](C)[C@H]1NC(=O)[C@@H](N)[C@@H](C)OC(=O)[C@H](Cc2ccc(OC)cc2)N(C)C(=O)[C@@H]2CCCN2C(=O)[C@H](CC(C)C)NC(=O)[C@@H](C)C(=O)[C@H](C(C)C)OC(=O)C[C@@H]1O (H-T[X36]LP[NMeY](Me); ester 1-C)
inactive: RPMI-8226 12.7 µM | UO-31 6.62 µM | 786-0 93.8 µM | NCI-H226 37.2 µM | OVCAR-5 31.5 µM | NCI-H522 10.5 µM | SF-268 49.5 µM | HOP-62 14.7 µM | IGROV-1 10.1 µM | SN12C 29.6 µM | TK-10 36.7 µM | LOX IMVI 21.6 µM | SK-MEL-2 46 µM | HL-60 11.7 µM | BT-549 20.2 µM | SNB-75 13.2 µM | OVCAR-4 54.5 µM | NCI-H460 30.3 µM | MDA-MB-435 15.5 µM | K562 18.4 µM | SW-620 19.5 µM | MOLT-4 6.85 µM | HCC 2998 54.1 µM | UACC-62 29.9 µM | SF-295 29.4 µM | SK-OV-3 35.6 µM | SF-539 26.8 µM | SR 16.3 µM | EKVX 44.2 µM | CCRF-CEM 22.3 µM | SK-MEL-5 12.9 µM | M14 4.84 µM | OVCAR-3 20.6 µM | UACC-257 15.6 µM | HT-29 3.67 µM | Hs-578T 12.2 µM | OVCAR-8 50.7 µM | A549 19.3 µM | Malme-3M 31.7 µM | SNB-19 28.7 µM | SK-MEL-28 16.8 µM | RXF 393 8.13 µM | MCF7 33.7 µM | KM12 9.35 µM | ACHN 29.1 µM | PC-3 14.3 µM | U-251 29.5 µM | NCI/ADR-RES > 100 µM | NCI-H23 35.4 µM
36.7 µM: HCT-15
